Laboratory results taken from US5756532A, “Aminomethyl-2 3 8 9-tetrahydro-7H-1 4-dioxino[2 3-E]-indol-8-ones and derivatives” (American Home Products Corporation, priority 1996, dated 1998).

How the values were obtained:
[1] = biological target: T1, dopamine D2 receptor (Rattus norvegicus, UniProt P61169); assay: Affinity for the dopamine D2 receptor (3H-quinpirole, rat striatal brain tissue homogenate); assay type: binding; settings: homogenized rat striatal brain tissue
T1 construct: homogenized rat striatal brain tissue; from tissue; host or cells: rat striatum (homogenate)
T1 sequence (P61169 whole entry): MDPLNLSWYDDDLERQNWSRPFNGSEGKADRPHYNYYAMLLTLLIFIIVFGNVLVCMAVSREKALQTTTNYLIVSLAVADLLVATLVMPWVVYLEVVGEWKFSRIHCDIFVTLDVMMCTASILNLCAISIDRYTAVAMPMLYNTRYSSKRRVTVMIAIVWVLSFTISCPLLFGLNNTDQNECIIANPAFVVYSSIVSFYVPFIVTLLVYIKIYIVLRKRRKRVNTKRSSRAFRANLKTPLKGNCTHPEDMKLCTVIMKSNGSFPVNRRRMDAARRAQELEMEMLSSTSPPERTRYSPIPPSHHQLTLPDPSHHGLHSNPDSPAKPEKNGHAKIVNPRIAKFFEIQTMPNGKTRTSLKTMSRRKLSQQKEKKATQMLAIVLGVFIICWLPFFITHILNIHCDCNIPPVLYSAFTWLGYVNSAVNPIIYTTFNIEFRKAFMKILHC
Experimental: Affinity for the dopamine D2 receptor was established by a modification of the standard experimental test procedure of Seemen and Schaus, European Journal of Pharmacology 203: 105-109, 1991, wherein homogenized rat striatal brain tissue is incubated with ^3 H-quinpirole and various concentrations of test compound, filtered and washed and counted in a Betaplate scintillation counter.

[2] = system: mouse locomotor activity; assay: Reduction of mouse locomotor activity (hypolocomotion); assay type: in vivo, mouse (male, CF-1); settings: 20 min, sc, horizontal activity counts collected 10 to 20 minutes after dosing
Experimental: The antipsychotic activity of the compounds of the invention was further established by a determination of the compounds' ability to reduce mouse locomotor activity according to the method of Martin and Bendensky, J. Pharmacol. Exp. Therap. 229: 706-711, 1984, in which mice (male, CF-1, Charles River, 20-30 g) were injected with vehicle or various doses of each drug and locomotor activity was measured for 30 minutes using automated infrared activity monitors (Omnitech-8×8 inch open field) located in a darkened room. ED50 's were calculated from the horizontal activity counts collected from 10 to 20 minutes after dosing using a nonlinear regression analysis with inverse prediction.

[3] = system: dopamine autoreceptor; assay: GBL model: effect on synthesis of dopamine (inhibition of dopa accumulation); assay type: in vivo, rat (male, Sprague-Dawley); settings: rat, 10 mg/kg, sc; GBL 750 mg/kg ip, NSD-1015 100 mg/kg ip
Experimental: The effect of the compounds of the invention on the synthesis of dopamine was established by the method of Walters and Roth, Naunyn-Schmiedeberg's Arch. Pharmacol. 296:5-14, 1976, in which rats (male, Sprague-Dawley, Charles River, 200-350 g) were administered vehicle or test drug ten minutes prior to the administration of gamma butyrolactone (GBL; 750 mg/kg, ip to inhibit dopaminergic impulse flow) and 20 minutes prior to NSD-1015 (100 mg/kg, ip to prevent the conversion of dopa to dopamine). Thirty minutes after NSD-1015 all rats were decapitated and the nucleus accumbens and the striatum were removed for analysis. Following perchloric acid extraction of the tissue, the extracts were placed over alumina columns to collect and concentrate dopa and other catechols. This eluate was then subjected to HPLC analysis using electrochemical detection to quantify the levels of dopa present. Dopamine autoreceptor agonists, under the conditions used above, inhibit dopa accumulation. […]

IC50 [1] [nM] | Structure (SMILES) | ED50 [2] [mg/kg] | inhibition of dopa accumulation [3] [%]
0.37 | O=C1Cc2c(ccc3c2O[C@@H](CNCc2ccccc2)CO3)N1 [Example 1] | 0.0031 | 67.5
1.39 | Cc1ccc(CNC[C@H]2COc3cc(C)c4c(c3O2)CC(=O)N4)cc1 [Example 28, 2-[(4-Methyl-benzylamino)-methyl]-6-methyl-2,3,8,9-tetrahydro-7H-1,4-dioxino[2,3-e]indol-8-one] | 0.024 | –
